Reference: publication PMC3693772, “Protein expression, biochemical pharmacology of signal transduction, and relation to intraocular pressure modulation by bradykinin B2 receptors in ciliary muscle” (Molecular Vision, 2013)
Entries after “also recorded” stand apart in the source; their conditions may differ.

Columns and labels:
pro-MMP-3, h-CM cells = assay: pro-MMP-3 release from h-CM cells; format: cell-based, human; settings: BK 10 nM to 1 µM, 24 h at 37 °C; n=5
Description: Measurement of extracellular signal-regulated kinase-1/2 phosphorylation and pro-matrix metalloproteinase production
The release of pro-MMP-1/2/3 in the extracellular medium of h-CM cells exposed to kinin’s, for 24 h at 37 °C [29, 30] was studied next. Thus, h-CM cells isolated from multiple human donor eyes were cultured as described above and then serum-starved for 24 h prior to the addition of any test compound. Cells were incubated with the vehicle or test compound for 24 hours at 37 °C after which the medium was collected and concentrated ten-fold using Centricon concentrators (Millipore Corp., Bellireca, MA). Equal volumes of this concentrate were loaded on 10% SDS-polyacrylamide gels (SDS-PAGE) and the proteins separated and transferred to nitrocellulose membranes. The membranes were then blocked with 5% non-fat dry milk (Bio-Rad Laboratories, Hercules, CA) followed by incubation with antibodies to pro-MMP-1, pro-MMP-2, or pro-MMP-3 for 12 hours at 4 °C with gentle shaking. After washing, these membranes were incubated with appropriate secondary antibodies (HRP-conjugated; dilution 1:3000) for 1 hour at 20 °C. […] For chemiluminescent detection, the membranes were treated with enhanced chemiluminescent reagent (Amersham Pharmacia, Piscataway, NJ) and the signal was quantified using a Bio-Rad Versadoc imaging system (Bio-Rad Laboratories, Hercules, CA).

h-CM cells [1] = assay: Nitric oxide production in h-CM cells; format: cell-based, human; settings: BK 0.1 and 1 µM; data not shown
Source text: Measurement of nitric oxide production
In certain cell types, BK elevates intracellular levels of nitric oxide (NO), which in turn causes the generation of cGMP via the soluble guanylate cyclase in the cell cytosol. In the present studies, we determined whether the B2 receptors in h-CM cells were coupled to NO production using a specific kit (Promega Corp., Madison, WI) and according to the manufacturer’s instructions.

[2] = test system: ERK1/2 phosphorylation, CHO-B2 cells; assay: ERK1/2 phosphorylation in CHO-B2 cells (HTRF); format: cell-based, Chinese hamster ovary cells, human cloned B2 receptor; settings: high basal background
primary h-TM cells = format: cell-based, human; settings: preliminary data, values rounded-off, read-out: Agonist potency at stimulating [Ca^2+]i mobilization in primary h-TM cells (EC50)
h-CM cells [3] = assay: PGD2 production in h-CM cells; format: cell-based, human; settings: with or without BK; limit of detection PGD2=200 pg/ml
Description: This involved stimulating h-CM cells and CHO-B2 cells with various concentrations of test peptides and measuring the release of various PGs in the extracellular medium. The concentration-dependent effects of these peptides on total PGs, and specifically PGE2, PGF2α, and PGD2 release, were studied. Cells were grown as a monolayer in a 24-well plate (precoated with fibronectin) to confluence and subsequently serum-starved overnight before the experiment. On the day of the experiment, just before the drug was added, the wells were aspirated completely, and 990 µl basal medium and 10 µl 100× series of concentrations of the different peptide agonists were added to achieve the desired final concentrations of each compound (e.g., 0.1 nM to 10 µM). […] At the end of the incubation period, the cellular supernatants were collected and stored at −80 °C or used immediately to determine the PG content. Cell supernatants were tested for total PG levels and sub-species of PGs (PGE2, PGF2α, and PGD2) using specific competitive enzyme immunoassays (Cayman Chemical Co., Ann Arbor, MI) as directed in the manufacturer’s recommended protocols using the supplied standards and reagents. The limits of detection for various PGs were as follows: total PGs=29 pg/ml; PGE2=15 pg/ml; PGF2α=9 pg/ml; PGD2=200 pg/ml.

H-RPPGFSPFR-OH [BK]
pro-MMP-3 release vs basal level (pro-MMP-3, h-CM cells): 1.41±0.09 fold | Effect on NO levels (h-CM cells [1]): failed to have any effect on NO levels; also recorded: failed to do so in h-CM cells | ERK1/2 phosphorylation response in CHO-B2 cells [2]: did not obtain a meaningful response | EC50 (primary h-TM cells): 1 nM | PGD2 release in h-CM cells (h-CM cells [3]): no PGD2 was detected
